Experimental data as given in ChEMBL document CHEMBL1201862, “PubChem BioAssay data set” (2004).
Activity calls are given as the source filed them.

Assays:
[1] = molecular target: T1, E3 ubiquitin-protein ligase XIAP (Homo sapiens, UniProt P98170); assay: Counter Screen using XIAP-Bir3 for Chemical Antagonists of Bir1/2 domains of IAP-family anti-apoptotic proteins. [Related pubchem assays (depositor defined):AID1018, AID1449, AID1514, AID1638, AID1749, AID1750, AID488957, AID488963]
[2] = molecular target: T1, E3 ubiquitin-protein ligase XIAP; assay: XIAP antagonists, biochemical, IAP family, fluorescence polarization (AID 1018); assay type: functional
Vero [3] = assay: cells; assay type: functional; settings: Chlorocebus sabaeus
Vero [4] = assay: cells; assay type: functional, cell-based; settings: Chlorocebus sabaeus
HEK293 [5] = assay: cells; assay type: functional, cell-based; settings: Homo sapiens
HEK293 [6] = assay: NOD1 signaling inhibitors, primary screen, cell-based, luminescence, uHTS (AID 1578); assay type: functional; settings: Homo sapiens
[7] = molecular target: Nucleotide-binding oligomerization domain-containing protein 2 (Homo sapiens, UniProt Q9HC29); assay: NOD2 signaling inhibitors, cell-based, luminescence, uHTS, HEK293 (AID 1566); assay type: functional
Chain of Nucleotide-binding oligomerization domain-containing protein 2 (Q9HC29 whole entry, the tested form may be a part): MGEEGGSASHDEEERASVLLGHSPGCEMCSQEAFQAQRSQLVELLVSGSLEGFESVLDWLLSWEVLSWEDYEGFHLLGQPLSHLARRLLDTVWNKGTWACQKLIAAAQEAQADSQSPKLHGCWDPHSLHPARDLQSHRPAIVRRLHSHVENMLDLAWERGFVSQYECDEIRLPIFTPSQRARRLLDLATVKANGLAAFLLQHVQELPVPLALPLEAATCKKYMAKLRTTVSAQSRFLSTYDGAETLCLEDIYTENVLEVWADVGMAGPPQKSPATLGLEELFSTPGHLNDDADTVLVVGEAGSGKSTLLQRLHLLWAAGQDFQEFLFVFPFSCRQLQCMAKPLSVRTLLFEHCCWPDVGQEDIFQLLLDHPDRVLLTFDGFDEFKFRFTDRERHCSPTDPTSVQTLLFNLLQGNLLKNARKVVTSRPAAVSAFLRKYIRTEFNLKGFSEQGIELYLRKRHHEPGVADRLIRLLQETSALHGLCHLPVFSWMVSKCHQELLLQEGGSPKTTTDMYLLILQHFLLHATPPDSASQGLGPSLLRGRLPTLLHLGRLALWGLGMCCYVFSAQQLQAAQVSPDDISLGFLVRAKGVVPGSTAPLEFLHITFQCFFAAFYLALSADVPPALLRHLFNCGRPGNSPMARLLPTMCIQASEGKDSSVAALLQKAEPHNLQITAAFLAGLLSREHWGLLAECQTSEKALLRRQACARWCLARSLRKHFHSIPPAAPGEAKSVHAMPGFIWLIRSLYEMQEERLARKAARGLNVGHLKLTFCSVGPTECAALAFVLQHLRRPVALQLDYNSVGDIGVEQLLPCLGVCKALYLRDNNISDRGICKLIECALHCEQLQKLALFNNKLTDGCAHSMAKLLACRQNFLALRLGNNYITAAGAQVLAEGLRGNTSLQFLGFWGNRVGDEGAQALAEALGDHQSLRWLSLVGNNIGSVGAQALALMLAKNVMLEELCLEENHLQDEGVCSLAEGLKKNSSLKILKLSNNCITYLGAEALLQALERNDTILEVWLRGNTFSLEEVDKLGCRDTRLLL

HEK293 [8] = assay: cells; assay type: functional, cell-based; settings: Homo sapiens; remark: listed apart in the source
HEK293 [9] = assay: cells; assay type: functional, cell-based; settings: Homo sapiens; remark: listed apart in the source
INS1 = assay: beta cell apoptosis inhibitors, cytokine rescue, dose response, luminescence, retest (AID 449756); assay type: functional, cell-based; settings: Rattus norvegicus;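 also: cell death triggered by IL-1 beta plus TNF-alpha plus IFN-gamma mixture; protective hits raise ATP signal compared with cytokine alone wells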
[10] = cytotoxicity toward NIH3T3 fibroblasts, dose response, counter-screen, cell-based, ATP luminescence, mouse fibroblasts (AID 2010); assay type: functional;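 also: cells exposed to compound for about 90 hours before reading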
[11] = inhibitors of intracellular T. cruzi replication, confirmation, NIH3T3 host cells, beta-gal luminescence (AID 2044); assay type: functional, cell-based;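 also: intracellular parasites grown in NIH/3T3 mouse fibroblasts as host cells; luminescent beta-galactosidase reporter signal from transgenic T. cruzi replicating inside host cells; inhibitors lower the luminescence signal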
HEK293 [12] = assay: NOD2 signaling inhibitors in MDP-stimulated cells, cell-based, uHTS, luminescence (AID 2001); assay type: functional; settings: Homo sapiens
Paired box protein Pax-8 = Paired box protein Pax-8 (Homo sapiens, UniProt Q06710); assay: inhibitors of PAX8-driven TPO luciferase reporter, dose response, RMG-I cells, cherry-pick (AID 687027); assay type: functional, cell-based;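 also: luciferase reporter driven by Pax8 target thyroperoxidase promoter measured by SteadyGlo luminescence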
Chain of Paired box protein Pax-8 (Q06710 whole entry): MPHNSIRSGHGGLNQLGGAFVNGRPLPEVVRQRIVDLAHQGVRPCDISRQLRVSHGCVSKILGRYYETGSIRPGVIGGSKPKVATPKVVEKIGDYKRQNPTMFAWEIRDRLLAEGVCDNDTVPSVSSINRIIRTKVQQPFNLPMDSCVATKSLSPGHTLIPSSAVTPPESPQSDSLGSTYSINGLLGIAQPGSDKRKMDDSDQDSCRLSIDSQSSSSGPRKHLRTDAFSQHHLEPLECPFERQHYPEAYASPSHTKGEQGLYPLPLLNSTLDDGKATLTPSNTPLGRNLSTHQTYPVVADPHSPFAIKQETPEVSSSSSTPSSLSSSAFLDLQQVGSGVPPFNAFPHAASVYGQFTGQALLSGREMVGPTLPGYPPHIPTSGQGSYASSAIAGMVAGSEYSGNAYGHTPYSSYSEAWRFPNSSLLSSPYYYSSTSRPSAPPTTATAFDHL

[13] = cytotoxicity toward DRD oncogenic fibroblasts, dose response, cell-based, non-viral oncogenic, luminescence (AID 1934); assay type: functional; settings: Homo sapiens
[14] = Luminescence Cell-Based Dose Response HTS to Identify Activators of Luciferase Translation or Activity in H4-C Neuroglioblastoma Cells. [Related pubchem assays: 1829 (Project Summary), 1814 (Primary HTS)]; assay type: functional
[15] = Luminescence Cell-Based Dose Response HTS to Identify Activators of 5'UTR Stem-Loop Driven Prion Protein mRNA Translation in H4-C Neuroglioblastoma Cells. [Related pubchem assays: 1829 (Project Summary), 1814 (Primary HTS)]; assay type: functional
BJ [16] = assay: cytotoxicity toward BJ-TERT fibroblasts, dose response, cell-based, RAS-independent, luminescence (AID 1933); assay type: functional; settings: Homo sapiens
BJ [17] = assay: cytotoxicity toward BJ-TERT-LT-ST fibroblasts, dose response, cell-based, RAS-independent, luminescence (AID 1935); assay type: functional; settings: Homo sapiens;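 also: BJ fibroblasts immortalized with TERT plus LT and ST oncogenes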
[18] = Luminescence Cell-Based Dose Response HTS to Identify Inhibitors of Luciferase Translation or Activity in H4-C Neuroglioblastoma Cells. [Related pubchem assays: 1813 (Primary HTS), 1827 (Project Summary)]; assay type: functional
[19] = Luminescence Cell-Based Dose Confirmation HTS to Identify Inhibitors of 5'UTR Stem-Loop Driven Alpha-Synuclein mRNA Translation in H4 Neuroglioblastoma Cells. [Related pubchem assays: 1827 (Project Summary), 1813 (Primary HTS)]; assay type: functional
[20] = Luminescence Cell-Based Dose HTS Response to Identify Inhibitors of 5'UTR Stem-Loop Driven Prion Protein mRNA Translation in H4-C Neuroglioblastoma Cells. [Related pubchem assays (depositor defined):AID1814, AID1827]; assay type: functional
[21] = Luminescence Cell-Based Dose Response HTS to Identify Inhibitors of 5'UTR Stem-Loop Driven Prion Protein mRNA Translation in H4 Neuroglioblastoma Cells. [Related pubchem assays: 1827 (Project Summary), 1813 (Primary HTS)]; assay type: functional
[22] = inhibitors of SNCA 5'UTR-driven reporter translation, confirmation, H4 neuroglioma cells, luminescence (AID 1988); assay type: functional, cell-based
BJ [23] = assay: cells; assay type: functional, cell-based; settings: Homo sapiens
[24] = Luminescence Cell-Based Dose Retest to Confirm Activators of 5'UTR Stem-Loop Driven Alpha-Synuclein mRNA Translation in H4 Neuroglioblastoma Cells. [Related pubchem assays (depositor defined):AID1813, AID1829]; assay type: functional
[25] = inhibitors of firefly luciferase expression or activity, dose response, H4 neuroglioma cells, luminescence (AID 1990); assay type: functional, cell-based
cells = assay type: functional
Streptococcus = assay: Group A Streptococcus viability loss, dose response, counter-screen for streptokinase expression inhibitor project, luminescence, BacTiterGlo (AID 1915); assay type: functional, organism-based;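 also: potency for reduction of bacterial viability or growth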
[26] = Vero E6 cell cytotoxicity, dose response, cytotoxicity control for non-replicating M. tuberculosis project, secondary assay (AID 492998); assay type: functional, VeroE6; settings: Vero C1008
[27] = THP-1 cell cytotoxicity, dose response, cytotoxicity control for non-replicating M. tuberculosis project (AID 489025); assay type: functional
[28] = HepG2 cell cytotoxicity, dose response, cytotoxicity control for non-replicating M. tuberculosis project (AID 489018); assay type: functional; settings: Mycobacterium tuberculosis
[29] = test system: Streptococcus sp. 'group A'; assay: growth inhibition of control SK(-) GAS strain, dose response, counter-screen for streptokinase expression inhibitor project, luminescence, kanamycin, BacTiterGlo, confirmation (AID 1900); assay type: functional, organism-based
[30] = molecular target: Female germline-specific tumor suppressor gld-1 (Caenorhabditis elegans, UniProt Q17339); assay: inhibitors of GLD-1 binding to TGE RNA, dose response, biochemical, fluorescence polarization, C. elegans (AID 2802);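 also: fluorescence polarization of labeled TGE RNA bound by purified gld-1 protein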
Chain of Female germline-specific tumor suppressor gld-1 (Q17339 whole entry, the tested form may be a part): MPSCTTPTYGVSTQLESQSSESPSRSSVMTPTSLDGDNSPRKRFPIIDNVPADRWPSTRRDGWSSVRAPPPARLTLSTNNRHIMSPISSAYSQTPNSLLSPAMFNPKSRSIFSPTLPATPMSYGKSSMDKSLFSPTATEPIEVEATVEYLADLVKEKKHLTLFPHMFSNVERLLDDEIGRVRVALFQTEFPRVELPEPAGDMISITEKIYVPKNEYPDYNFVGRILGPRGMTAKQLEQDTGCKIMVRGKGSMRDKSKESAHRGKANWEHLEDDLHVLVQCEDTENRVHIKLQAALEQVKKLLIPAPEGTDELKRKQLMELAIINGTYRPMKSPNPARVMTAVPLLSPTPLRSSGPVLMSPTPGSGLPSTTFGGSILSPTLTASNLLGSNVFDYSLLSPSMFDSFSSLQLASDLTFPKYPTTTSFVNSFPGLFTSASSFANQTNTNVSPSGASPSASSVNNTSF

[31] = molecular target: T2, RNA-binding protein pos-1 (Caenorhabditis elegans, UniProt G5EF15); assay: inhibitors of POS-1/mex-3 RNA binding, dose response, biochemical, fluorescence polarization (AID 1964);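 also: purified POS-1 fused to maltose binding protein made in E. coli; potency of compounds blocking POS-1 binding to fluorescent RNA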
T2 sequence (G5EF15 whole entry): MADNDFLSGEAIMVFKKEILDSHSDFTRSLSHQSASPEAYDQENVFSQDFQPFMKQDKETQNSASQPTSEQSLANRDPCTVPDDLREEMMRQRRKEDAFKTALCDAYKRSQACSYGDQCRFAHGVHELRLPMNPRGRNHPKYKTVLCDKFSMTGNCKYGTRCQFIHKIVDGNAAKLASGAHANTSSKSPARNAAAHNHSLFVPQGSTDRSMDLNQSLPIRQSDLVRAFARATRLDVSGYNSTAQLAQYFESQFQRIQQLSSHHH

[32] = molecular target: T3, Zinc finger protein mex-5 (Caenorhabditis elegans, UniProt Q9XUB2); assay: MEX-5/TCR-2 RNA interaction inhibitors, dose response, biochemical, C. elegans, fluorescence polarization (AID 1960)
T3 sequence (Q9XUB2 whole entry): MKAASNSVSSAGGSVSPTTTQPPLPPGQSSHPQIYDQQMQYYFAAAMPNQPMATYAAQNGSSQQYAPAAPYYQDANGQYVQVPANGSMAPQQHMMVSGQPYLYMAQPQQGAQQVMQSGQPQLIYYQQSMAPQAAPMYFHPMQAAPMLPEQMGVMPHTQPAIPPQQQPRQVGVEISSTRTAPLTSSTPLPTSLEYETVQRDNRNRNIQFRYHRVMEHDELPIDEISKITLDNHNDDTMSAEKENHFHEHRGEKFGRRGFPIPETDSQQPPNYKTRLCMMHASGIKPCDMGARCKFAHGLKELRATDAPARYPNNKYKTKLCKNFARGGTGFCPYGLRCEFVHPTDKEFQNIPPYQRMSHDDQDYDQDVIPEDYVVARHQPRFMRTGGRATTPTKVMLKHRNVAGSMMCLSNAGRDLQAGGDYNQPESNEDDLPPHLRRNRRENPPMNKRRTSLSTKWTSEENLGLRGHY

Protein Rev = Protein Rev (Human immunodeficiency virus type 1 group M subtype B (isolate HXB2)(HIV-1), UniProt P04618); assay: inhibitors of Rev binding to RRE RNA, dose response, biochemical, fluorescence polarization, HIV-1 (AID 434976); design: species or system Human immunodeficiency virus 1
Chain of Protein Rev (P04618 whole entry): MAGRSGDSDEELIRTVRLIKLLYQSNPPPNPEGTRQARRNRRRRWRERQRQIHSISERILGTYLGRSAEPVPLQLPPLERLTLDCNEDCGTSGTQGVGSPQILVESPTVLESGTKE

[33] = molecular target: G-protein coupled receptor 55 (Homo sapiens, UniProt Q9Y2T6); assay: GPR55 agonists via beta-arrestin recruitment, primary screen, imaging, U2OS cells, beta-arrestin-GFP redistribution (AID 1961); assay type: functional
Chain of G-protein coupled receptor 55 (Q9Y2T6 whole entry): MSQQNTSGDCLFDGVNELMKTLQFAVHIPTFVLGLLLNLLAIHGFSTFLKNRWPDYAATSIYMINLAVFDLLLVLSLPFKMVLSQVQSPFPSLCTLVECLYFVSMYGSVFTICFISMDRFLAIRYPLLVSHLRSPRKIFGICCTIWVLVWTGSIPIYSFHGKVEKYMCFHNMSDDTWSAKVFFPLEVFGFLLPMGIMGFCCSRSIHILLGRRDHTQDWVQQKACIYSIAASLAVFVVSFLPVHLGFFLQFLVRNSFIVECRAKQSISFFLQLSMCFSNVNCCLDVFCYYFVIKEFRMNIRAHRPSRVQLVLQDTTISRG

T1 sequence (P98170 whole entry): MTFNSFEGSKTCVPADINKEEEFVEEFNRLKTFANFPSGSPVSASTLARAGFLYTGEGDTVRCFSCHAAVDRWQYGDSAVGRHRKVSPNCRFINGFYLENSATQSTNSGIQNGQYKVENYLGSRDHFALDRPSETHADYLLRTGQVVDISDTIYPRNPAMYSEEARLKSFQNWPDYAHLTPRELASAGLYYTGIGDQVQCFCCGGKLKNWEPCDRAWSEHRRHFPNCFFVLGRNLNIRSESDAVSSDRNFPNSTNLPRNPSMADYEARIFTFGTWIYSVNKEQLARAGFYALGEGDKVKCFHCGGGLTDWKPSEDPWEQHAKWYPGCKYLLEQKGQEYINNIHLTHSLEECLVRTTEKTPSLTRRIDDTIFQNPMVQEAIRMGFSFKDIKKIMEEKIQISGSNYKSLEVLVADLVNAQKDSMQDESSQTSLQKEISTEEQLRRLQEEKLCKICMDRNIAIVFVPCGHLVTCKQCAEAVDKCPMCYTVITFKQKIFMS

CC(C)(Nc1ccccc1)C(=O)c1ccccc1
IC50 [1]: > 100 µM (inactive) | IC50 [2]: > 100 µM (not active)

C=C(C(=O)c1ccccc1)C(C(=C)C(=O)c1ccccc1)c1ccc(OC)cc1
CC50 (Vero [3]): 11.2 µM (active) | IC50 (Vero [4]): > 25 µM (active) | IC50 (HEK293 [5]): > 20 µM (inactive) | EC50 (HEK293 [6]): > 20 µM (inactive) | EC50 [7]: > 20 µM (inactive) | IC50 (HEK293 [8]): 5.78 µM (active) | IC50 (HEK293 [9]): > 20 µM (inactive) | AC50 (INS1): 6.58 µM (active) | EC50 [10]: 10.4 µM (active) | EC50 [11]: 2.88 µM (active) | IC50 (HEK293 [12]): 5.4 µM (inactive) | AC50 (Paired box protein Pax-8): 2.66 µM (active)

Cc1ccc(-c2cc(C(=O)N/N=C/c3c(C)nn(-c4ccccc4)c3C)[nH]n2)cc1
EC50 [13]: 0.576 µM (active) | EC50 [14]: 1.75 µM (inconclusive) | EC50 [15]: 1.28 µM (inconclusive) | EC50 (BJ [16]): 0.603 µM (active) | EC50 (BJ [17]): 0.624 µM (inconclusive) | EC50 [18]: 1.01 µM (active) | EC50 [19]: 10.1 µM (active) | EC50 [20]: 5.9 µM (active) | EC50 [21]: 14 µM (active) | EC50 [22]: 0.327 µM (active) | EC50 (BJ [23]): 2.04 µM (inconclusive) | EC50 [24]: 2.09 µM (inconclusive) | EC50 [25]: 7.44 µM (active)

O=C(NNC(=S)NC(=O)c1cn(-c2ccccc2)nc1-c1ccccc1)c1ccncc1
CC50 (Vero [3]): 24.3 µM (active) | IC50 (Vero [4]): 24.4 µM (active) | IC50 (cells): 2.75 µM (active) | EC50 (Streptococcus): 0.94 µM (active) | CC50 [26]: 10 µM (active) | CC50 [27]: 13.6 µM (active) | CC50 [28]: > 20 µM (active) | EC50 [29]: 0.239 µM (active)

Cc1c(O)ccc(-c2n[nH]c(C(=O)O)c2-c2nc3ccccc3s2)c1O
IC50 [30]: 5.41 µM (active) | EC50 [31]: 15.3 µM (active) | EC50 [32]: 14 µM (inconclusive) | IC50 (Protein Rev): > 75.4 µM (not active)

CC(=O)c1c(C(C)=O)c(C)n(Cc2ccc3c(c2)OCO3)c1C
EC50 [33]: > 32 µM (inactive)
